Results: PubChem BioAssay AID256 (DTP/NCI, 2004)
Inconclusive results and toxic doses are left out.

Test system: CD2F1 mice, L1210 leukemia ip, survival T/C
Assay: NCI In Vivo Anticancer Drug Screen. Data for tumor model L1210 Leukemia (intraperitoneal) in CD2F1 (CDF1) mice
Details: higher = longer survival
Summary of the method: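 Transplantable tumor in mice; compound-treated vs vehicle-treated groups. Read-out = treated/control ratio of the measured endpoint.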

[1] = endpoint: mean survival time, dose: 100.0 mg/kg/injection, schedule: Q01DX009 (ip), vehicle: saline with Tween-80
[2] = endpoint: mean survival time, dose: 100.0 mg/kg/injection, schedule: Q04DX003 (ip), vehicle: saline with Tween-80
[3] = endpoint: mean survival time, dose: 200.0 mg/kg/injection, schedule: Q01DX009 (ip), vehicle: saline with Tween-80
[4] = endpoint: mean survival time, dose: 200.0 mg/kg/injection, schedule: Q04DX003 (ip), vehicle: saline with Tween-80
[5] = endpoint: mean survival time, dose: 400.0 mg/kg/injection, schedule: Q04DX003 (ip), vehicle: saline with Tween-80
[6] = endpoint: mean survival time, dose: 100.0 mg/kg/injection, schedule: Q01DX001 (ip), vehicle: saline with Tween-80
[7] = endpoint: mean survival time, dose: 400.0 mg/kg/injection, schedule: Q01DX001 (ip), vehicle: saline with Tween-80

CCCn1c(O)c(C=N)c(=O)[nH]c1=O
T/C [1]: 101 % of control
T/C [2]: 91 % of control
T/C [3]: 111 % of control
T/C [4]: 92 % of control
T/C [5]: 94 % of control

O=C1Nc2ccccc2/C1=N/N=C/c1cc(Cl)cc(Cl)c1O
T/C [6]: 94 % of control
T/C [7]: 95 % of control

COc1ccc(Cc2nccc3cc(OC)c(OC)cc23)cc1OC
T/C (endpoint: mean survival time, dose: 9.4 mg/kg/injection, schedule: Q04DX003 (ip), vehicle: water): 115 % of control
T/C (endpoint: mean survival time, dose: 18.7 mg/kg/injection, schedule: Q04DX003 (ip), vehicle: water): 93 % of control
T/C (endpoint: mean survival time, dose: 37.5 mg/kg/injection, schedule: Q04DX003 (ip), vehicle: water): 96 % of control
T/C (endpoint: mean survival time, dose: 50.0 mg/kg/injection, schedule: Q01DX009 (ip), vehicle: water): 96 % of control

O=C(O)c1c(F)cccc1F
T/C (endpoint: mean survival time, dose: 75.0 mg/kg/injection, schedule: Q01DX001 (ip), vehicle: other): 103 % of control
T/C (endpoint: mean survival time, dose: 150.0 mg/kg/injection, schedule: Q01DX001 (ip), vehicle: other): 100 % of control
T/C (endpoint: mean survival time, dose: 300.0 mg/kg/injection, schedule: Q01DX001 (ip), vehicle: other): 100 % of control

CC1=NNC(=O)C1CCO (centres undefined)
T/C (endpoint: median survival time, dose: 25.0 mg/kg/injection, schedule: Q01DX009 (ip), vehicle: Klucel (hydroxypropylcellulose) (HPC)): 103 % of control
T/C (endpoint: median survival time, dose: 50.0 mg/kg/injection, schedule: Q01DX009 (ip), vehicle: Klucel (hydroxypropylcellulose) (HPC)): 100 % of control
T/C (endpoint: median survival time, dose: 100.0 mg/kg/injection, schedule: Q01DX009 (ip), vehicle: Klucel (hydroxypropylcellulose) (HPC)): 98 % of control
T/C (endpoint: median survival time, dose: 200.0 mg/kg/injection, schedule: Q01DX009 (ip), vehicle: Klucel (hydroxypropylcellulose) (HPC)): 102 % of control
T/C (endpoint: median survival time, dose: 400.0 mg/kg/injection, schedule: Q01DX009 (ip), vehicle: Klucel (hydroxypropylcellulose) (HPC)): 103 % of control
T/C (endpoint: median survival time, dose: 800.0 mg/kg/injection, schedule: Q01DX009 (ip), vehicle: Klucel (hydroxypropylcellulose) (HPC)): 104 % of control

N=C(OC/C=C/c1ccccc1)C(Cl)(Cl)Cl
T/C [6]: 93 % of control
T/C (endpoint: mean survival time, dose: 200.0 mg/kg/injection, schedule: Q01DX001 (ip), vehicle: saline with Tween-80): 93 % of control
T/C [7]: 93 % of control

CCN(CC)C(=O)Nc1cc(Cl)ccc1Cl
T/C (endpoint: mean survival time, dose: 100.0 mg/kg/injection, schedule: Q04DX002 (ip), vehicle: saline with Tween-80): 97 % of control
T/C (endpoint: mean survival time, dose: 200.0 mg/kg/injection, schedule: Q04DX002 (ip), vehicle: saline with Tween-80): 101 % of control

Cc1ccc(NC(=O)ON(C)C)cc1
T/C (endpoint: mean survival time, dose: 100.0 mg/kg/injection, schedule: Q04DX002 (ip), vehicle: other): 102 % of control

CC1=C(C)CS(=O)(=O)C1
T/C [2]: 95 % of control

CN1CCCCCC1
T/C [2]: 100 % of control
T/C [4]: 111 % of control

c1ccc2c(c1)Cn1c-2nc2ccccc21
T/C [2]: 97 % of control
T/C [4]: 97 % of control
T/C [5]: 94 % of control

O=P(O)(O)OCCCl
T/C (endpoint: mean survival time, dose: 100.0 mg/kg/injection, schedule: Q01DX009 (ip), vehicle: saline): 94 % of control
T/C (endpoint: mean survival time, dose: 100.0 mg/kg/injection, schedule: Q04DX003 (ip), vehicle: saline): 100 % of control
T/C (endpoint: mean survival time, dose: 200.0 mg/kg/injection, schedule: Q01DX009 (ip), vehicle: saline): 96 % of control
T/C (endpoint: mean survival time, dose: 200.0 mg/kg/injection, schedule: Q04DX003 (ip), vehicle: saline): 94 % of control
T/C (endpoint: mean survival time, dose: 400.0 mg/kg/injection, schedule: Q01DX009 (ip), vehicle: saline): 94 % of control
T/C (endpoint: mean survival time, dose: 400.0 mg/kg/injection, schedule: Q04DX003 (ip), vehicle: saline): 94 % of control

O=c1cn[nH]c2c(F)cccc12
T/C (endpoint: mean survival time, dose: 100.0 mg/kg/injection, schedule: Q01DX001 (ip), vehicle: other): 97 % of control
T/C (endpoint: mean survival time, dose: 200.0 mg/kg/injection, schedule: Q01DX001 (ip), vehicle: other): 104 % of control
T/C (endpoint: mean survival time, dose: 400.0 mg/kg/injection, schedule: Q01DX001 (ip), vehicle: other): 98 % of control

[N-]=[N+]=Nc1ccccc1C(=O)NCc1cnc(N)nc1N
T/C [2]: 95 % of control
T/C [4]: 95 % of control

CC(C)(C)C(=O)C#Cc1ccccc1
T/C (endpoint: mean survival time, dose: 25.0 mg/kg/injection, schedule: Q01DX009 (ip), vehicle: saline): 94 % of control
T/C (endpoint: mean survival time, dose: 50.0 mg/kg/injection, schedule: Q01DX009 (ip), vehicle: saline): 97 % of control

Nc1ccn(C2OC(COP(=O)(O)O)C(O)C2O)c(=O)n1 (centres undefined)
T/C (endpoint: mean survival time, dose: 4.0 mg/kg/injection, schedule: Q03HX024 (ip), vehicle: saline): 337 % of control
T/C (endpoint: mean survival time, dose: 8.0 mg/kg/injection, schedule: Q01DX008 (ip), vehicle: saline): 176 % of control
T/C (endpoint: mean survival time, dose: 8.0 mg/kg/injection, schedule: Q03HX024 (ip), vehicle: saline): 302 % of control
T/C (endpoint: mean survival time, dose: 16.0 mg/kg/injection, schedule: Q01DX008 (ip), vehicle: saline): 183 % of control
T/C (endpoint: mean survival time, dose: 16.0 mg/kg/injection, schedule: Q01DX009 (ip), vehicle: saline): 185 % of control
T/C (endpoint: mean survival time, dose: 16.0 mg/kg/injection, schedule: Q03HX024 (ip), vehicle: saline): 487 % of control
T/C (endpoint: mean survival time, dose: 16.0 mg/kg/injection, schedule: Q03HX024 (oral), vehicle: saline): 228 % of control
T/C (endpoint: mean survival time, dose: 32.0 mg/kg/injection, schedule: Q01DX008 (ip), vehicle: saline): 173 % of control
T/C (endpoint: mean survival time, dose: 32.0 mg/kg/injection, schedule: Q01DX009 (ip), vehicle: saline): 215 % of control
T/C (endpoint: mean survival time, dose: 32.0 mg/kg/injection, schedule: Q03HX024 (ip), vehicle: saline): 240 % of control
T/C (endpoint: mean survival time, dose: 32.0 mg/kg/injection, schedule: Q03HX024 (oral), vehicle: saline): 266 % of control
T/C (endpoint: mean survival time, dose: 64.0 mg/kg/injection, schedule: Q01DX001 (ip), vehicle: saline): 121 % of control
T/C (endpoint: mean survival time, dose: 64.0 mg/kg/injection, schedule: Q01DX008 (ip), vehicle: saline): 155 % of control
T/C (endpoint: mean survival time, dose: 64.0 mg/kg/injection, schedule: Q01DX008 (oral), vehicle: saline): 156 % of control
T/C (endpoint: mean survival time, dose: 64.0 mg/kg/injection, schedule: Q01DX009 (ip), vehicle: saline): 212 % of control
T/C (endpoint: mean survival time, dose: 64.0 mg/kg/injection, schedule: Q03HX024 (oral), vehicle: saline): 300 % of control
T/C (endpoint: mean survival time, dose: 128.0 mg/kg/injection, schedule: Q01DX001 (ip), vehicle: saline): 117 % of control
T/C (endpoint: mean survival time, dose: 128.0 mg/kg/injection, schedule: Q01DX001 (oral), vehicle: saline): 106 % of control
T/C (endpoint: mean survival time, dose: 128.0 mg/kg/injection, schedule: Q01DX008 (oral), vehicle: saline): 167 % of control
T/C (endpoint: mean survival time, dose: 128.0 mg/kg/injection, schedule: Q01DX009 (oral), vehicle: saline): 155 % of control
T/C (endpoint: mean survival time, dose: 128.0 mg/kg/injection, schedule: Q03HX024 (oral), vehicle: saline): 155 % of control
T/C (endpoint: mean survival time, dose: 128.0 mg/kg/injection, schedule: Q04DX003 (oral), vehicle: saline): 120 % of control
T/C (endpoint: mean survival time, dose: 256.0 mg/kg/injection, schedule: Q01DX001 (ip), vehicle: saline): 112 % of control
T/C (endpoint: mean survival time, dose: 256.0 mg/kg/injection, schedule: Q01DX001 (oral), vehicle: saline): 107 % of control
T/C (endpoint: mean survival time, dose: 256.0 mg/kg/injection, schedule: Q01DX009 (oral), vehicle: saline): 172 % of control
T/C (endpoint: mean survival time, dose: 256.0 mg/kg/injection, schedule: Q04DX003 (oral), vehicle: saline): 121 % of control
T/C (endpoint: mean survival time, dose: 512.0 mg/kg/injection, schedule: Q01DX001 (oral), vehicle: saline): 109 % of control
T/C (endpoint: mean survival time, dose: 512.0 mg/kg/injection, schedule: Q01DX009 (oral), vehicle: saline): 182 % of control
T/C (endpoint: mean survival time, dose: 1024.0 mg/kg/injection, schedule: Q01DX001 (oral), vehicle: saline): 155 % of control
T/C (endpoint: mean survival time, dose: 1024.0 mg/kg/injection, schedule: Q01DX009 (oral), vehicle: saline): 104 % of control
T/C (endpoint: mean survival time, dose: 1024.0 mg/kg/injection, schedule: Q04DX003 (oral), vehicle: saline): 164 % of control

NCC(Cl)c1ccccc1 (centres undefined)
T/C [1]: 97 % of control
T/C [3]: 95 % of control

CCC(C(N)=O)C1=CCCCC1 (centres undefined)
T/C [2]: 103 % of control
T/C [4]: 104 % of control
T/C [5]: 101 % of control

Nc1ncnc2c1ccn2C1OC(CO)CC1O (centres undefined)
T/C (endpoint: mean survival time, dose: 75.0 mg/kg/injection, schedule: Q01DX001 (ip), vehicle: saline): 103 % of control
T/C (endpoint: mean survival time, dose: 150.0 mg/kg/injection, schedule: Q01DX001 (ip), vehicle: saline): 100 % of control
T/C (endpoint: mean survival time, dose: 300.0 mg/kg/injection, schedule: Q01DX001 (ip), vehicle: saline): 109 % of control

CN(C)C(=O)C1C2CCCC(CC2)C1C(=O)N(C)C (centres undefined)
T/C (endpoint: mean survival time, dose: 100.0 mg/kg/injection, schedule: Q04DX002 (ip), vehicle: saline): 100 % of control
T/C (endpoint: mean survival time, dose: 200.0 mg/kg/injection, schedule: Q04DX002 (ip), vehicle: saline): 91 % of control
T/C (endpoint: mean survival time, dose: 400.0 mg/kg/injection, schedule: Q04DX002 (ip), vehicle: saline): 95 % of control

NC(=O)C[n+]1cccc(C(=O)Nc2ccccc2)c1
T/C (endpoint: mean survival time, dose: 100.0 mg/kg/injection, schedule: Q01DX009 (ip), vehicle: saline sonified): 95 % of control
T/C (endpoint: mean survival time, dose: 200.0 mg/kg/injection, schedule: Q01DX009 (ip), vehicle: saline sonified): 89 % of control
